Legend:
Format in all cases: functional, cell-based
[1] = tested on: SNB-19; assay: Cytotoxicity against human SNB19 cells after 2 days by XTT assay; settings: SNB-19, 48 h
[2] = Cytotoxicity against human LOX cells after 2 days by XTT assay; settings: 48 h
[3] = tested on: OVCAR-3; assay: Cytotoxicity against human OVCAR3 cells after 2 days by XTT assay; settings: OVCAR-3, 48 h
[4] = tested on: COLO 205; assay: Cytotoxicity against human COLO205 cells after 2 days by XTT assay; settings: COLO 205, 48 h
[5] = tested on: MOLT-4; assay: Cytotoxicity against human MOLT4 cells after 2 days by XTT assay; settings: MOLT-4, 48 h

O=C1NCCc2cc(Br)c(O)c(c2)Oc2cc(O)c(cc2Br)CCNC(=O)/C(=N/O)Cc2c(O)cc(Br)c(c2Br)Oc2cc(cc(Br)c2O)C/C1=N\O [LITHOTHAMNIN A]
IC50 [1]: 7.6 µM
IC50 [2]: 9.5 µM
IC50 [3]: 7.6 µM
IC50 [4]: 19 µM
IC50 [5]: 19 µM

Source: ChEMBL document CHEMBL1799909, “Lithothamnin A, the first bastadin-like metabolite from the red alga Lithothamnion fragilissimum” (J Nat Prod, 2011)
